Experimental data taken from a melting point compilation (Tetko et al.; mined from patent text by program, amines drawn as free bases though some values may be those of a salt).
Non-standard residues stand in square brackets, D forms with d. Residues, ends and D or L forms follow the SMILES beside them. ξ: configuration not given here. *: point of attachment. ξPhe(4-F) = NC(Cc1ccc(F)cc1)C(=O)O; Boc = CC(C)(C)OC(=O)*

Row | Structure (SMILES) | melting point [°C]
1 | COc1cc2nc(COc3ccc(CC4SC(=O)NC4=O)cc3)n(C)c(=O)c2cc1OC (stereo unspecified) | 252
2 | CCOC(=O)CCN1C(=O)C(NC(=O)OCc2ccccc2)N=C(c2ccccc2)c2ccccc21 (stereo unspecified) | 57 to 59
3 | CCc1nc(CO)n(CC)c1Sc1cc(C#N)cc(C#N)c1 | 141 to 143
4 | CCc1nn(C2CN(C(C)C)C2)c(C(N)=O)c1N | 150 to 156
5 | CCOC(=O)C=CC1C(C(=O)O)C1(C)C (stereo unspecified) | 96
6 | CN(C)c1ccc(NC(=O)N(CC2CCC(CN(C(=O)Nc3ccc(N(C)C)cc3)C3CC4CCC3C4)CC2)C2CC3CCC2C3)cc1 (stereo unspecified) | 188 to 191
7 | BrCCCCCOc1ccc2c(c1)OCO2 | 54 to 57
8 | CC(=O)N1CCC(C(C)(O)c2ccc(Cl)cc2)CC1 (stereo unspecified) | 178 to 180
9 | CCCCCCCCCCCCCCCCNC(=O)c1cc(OCCSCC(=O)O)c2ccccc2c1O | 91 to 93
10 | CC1=C2CCc3cc(C)ccc3N2CCC1=O | 143 to 145
11 | CC1CCC2(C(=O)O)CCC3(C)C(=CCC4C5(C)CC(O)C(O)C(C)(C)C5CCC43C)C2C1C (stereo unspecified) | 242 to 244
12 | C=CC(=O)NCCCCCC(=O)O | 88 to 90
13 | CC=C(NC(=O)C1CC1(CC)CC)C(=O)O (stereo unspecified) | 129 to 130
14 | Cc1cc2c(cc1OCCn1ccnc1)CCCC2=O | 118 to 120
15 | Cc1c(C)c2c(c(C)c1O)CC[C@@](C)(CO)O2 | 124 to 128
16 | CCOC1SCN(c2ccc(Cl)c(Cl)c2)C1=O (stereo unspecified) | 61 to 65

Row | Structure (SMILES) | melting point [°C]
17 | CCOC(=O)c1cc(OC)c(C(=O)OCC)cc1Br | 61 to 63
18 | CC(=CC(=O)O)c1cccc(-c2cc3c(cc2C)C(C)(C)CCC3(C)C)c1 | 89 to 90
19 | O=C(NCC1CCCC1)NCC1CCCC1 | 162 to 164
20 | COc1c(F)cc2[nH]c(C)c(CC(=O)OCC[Si](C)(C)C)c2c1F | 86.9 to 88.7
21 | CCNC(=O)C(Cc1ccc(F)cc1)NC(=O)CNC(=O)OC(C)(C)C (stereo not drawn) (Boc-Gly-[ξPhe(4-F)]-NHEt) | 181 to 182
22 | Nc1ncnc2c1ncn2Cc1nc2c(Cl)cccc2c(=O)n1-c1ccccc1Cl | 273 to 274
23 | CCC(=NNC(=O)C1CC1C)c1cccnc1 (stereo unspecified) | 137
24 | O[C@@H]1CCCC[C@H]1Nc1nc(Cl)ncc1Cl (relative stereo) | 139 to 142
25 | N#CC1(C2CCCc3ccccc32)CC1 (stereo unspecified) | 91 to 93
26 | O=C1C=CCCC=CCCC=CCCC=C1 | 30 to 37
27 | CO[C@H]1CC[C@H]([C@H]2CC[C@H](CCC=O)CC2)CC1 | 36
28 | COc1c(C)c(C)c(OC)c(C(O)(c2ccc(F)cc2)C(C)C)c1C (stereo unspecified) | 129 to 130
29 | Clc1ccc2[nH]cc(C3CCNCC3)c2c1 | 156 to 158
30 | O=c1cc(-c2ccncc2)nc2n1CCCCC2 | 148 to 150
31 | CC(=O)C1=CCC2C3CCC4CC(OS(=O)(=O)c5ccc(C)cc5)CCC4(C)C3CCC12C (stereo unspecified) | 146 to 148
32 | CSCc1cn(C)c2cc(Cl)ccc2c1=O | 163 to 164

Second part, the molecule after the results:

Row | melting point [°C] | Structure (SMILES)
33 | 164 to 166 | NC(=O)C1CCc2c(C(=O)c3ccccc3)cccc21 (stereo unspecified)
34 | 207 | CC(C)[C@]1(CCc2ccc(O)cc2)CC(O)=C(Sc2sc3ccccc3c2C(C)(C)C)C(=O)O1
35 | 153 to 154 | Cc1nc(N2CCN(Cc3ccc(C(F)(F)F)cc3)C2=O)sc1-c1ccno1
36 | 146 | O=c1nc(-c2cccc(CCCO)n2)sc2ccccc12
37 | 273 to 275 | CNc1ccc(-c2cnc3[nH]cc(C(=O)C4(C)CCCCC4)c3n2)cc1
38 | 156 to 159 | CCCCC1(CCCC)CS(=O)(=O)c2ccc(N(C)C)cc2[C@@H](c2ccc(OCc3ccc(C(=O)O)cc3)cc2)[C@H]1O
39 | 228 to 232 | CC(C)Cn1cnc2c(N)nc3ccc(-n4cccc4)cc3c21
40 | 125 | CN(C(=O)Nc1ccc2ccccc2c1)c1cccc(-c2ccc(CC(Nc3ccccc3C(=O)c3ccccc3)C(=O)O)cc2)c1 (stereo unspecified)
41 | 280 to 282 | CS(=O)(=O)Cc1cnc2ccccc2c1O
42 | 227 to 230 | C=C(C)C(=O)Nc1cccc(C(=O)NC2=NN(c3c(Cl)cc(Cl)cc3Cl)C(=O)C2c2cc[nH]n2)c1 (stereo unspecified)
43 | > 230 | COc1ccc(COc2cnc3c(S)cccn3c2=O)cc1
44 | 211 to 212 | O=c1c(-c2ccccc2)c[nH]n1-c1cccc(Cl)c1
45 | 143 to 144 | CC(C)Oc1cccc(N(C)C(=O)N(C)Cc2c(-c3ccccc3)c3cc(Cl)ccc3c(=O)n2C)c1
46 | 170 to 172 | CN1CCN(c2ccc([N+](=O)[O-])c(CS(=O)(=O)c3ccccc3)n2)CC1
47 | 129 to 131 | C=C(C)C(=O)Oc1ccc(NS(C)(=O)=O)cc1
48 | 184 to 185 | O=C(Nc1ccnnc1)Oc1ccccc1
49 | 319 to 322 | CS(=O)(=O)Nc1ccc2ncn3c(=O)c(C(=O)O)cnc3c2c1
50 | 115 to 120 | CSCC[C@H](NC(=O)c1cc(NC(Cn2ccnc2)c2ccc(F)cc2)ccc1CCc1ccc(F)cc1)C(=O)O (stereo partly specified)
51 | 135 to 136 | CN(C)CCC(c1ccccc1)c1ncc[nH]1 (stereo unspecified)
52 | 209 to 210 | O=C1Nc2ccncc2C(c2ccccc2)N1C1CCN(Cc2ccccc2)CC1 (stereo unspecified)

Row | melting point [°C] | Structure (SMILES)
53 | 244 to 246 | O=C(O)COc1cccc(CCc2nc(-c3ccccc3)c(-c3ccccc3)[nH]2)c1
54 | 180 to 187 | NC(=O)Nc1cccc(CS(=O)(=O)O)c1
55 | 181 to 183 | COc1cccc(NC(=O)N[C@H]2C[C@H](C(=O)O)Nc3cc(Cl)cc(Cl)c32)c1 (relative stereo)
56 | 108 to 109 | O=C(Oc1ccc(Cl)cc1)C1CCCc2ccc([N+](=O)[O-])cc21 (stereo unspecified)
57 | 136 to 137 | CCc1ccc2ncc(NC(=O)C=Cc3cc(OC)c(OC(C)=O)c(OC)c3)c(-c3ccccc3Cl)c2c1
58 | 148 to 150 | O=C(Nc1ccccc1)C1=C(c2ccccc2)C(c2ccccc2)OC1=O (stereo unspecified)
59 | 70 to 73 | CC(C)(c1ccccc1)C(S)C(=O)O (stereo unspecified)
60 | 256 to 257 | O=C(c1ccncc1)c1cc2c(c(C(=O)O)c1)OC(c1ccccc1)(c1ccccc1)O2
61 | 87 to 89 | CC1(C)CC(=O)C(S(=O)(=O)Cc2ccccc2)=C(O)C1
62 | 188 to 189 | O=C(O)COc1c(Br)cc(C(=O)c2ccc3ccccc3c2)cc1Br
63 | 190 to 192 | Nc1ccc(-n2ccnc2S(=O)Cc2ccccc2N2CCOCC2)nc1 (stereo unspecified)
64 | 194 to 197 | CCc1cn(C2CC(O)C(CNC(=O)C(C)Cc3c(Cl)cccc3Cl)O2)c(=O)[nH]c1=O (mixture of isomers)
65 | 67 to 68 | Cc1ccc(C(=O)Nc2ccc(CN3CCN(C)CC3)c(C(F)(F)F)c2)cc1C#Cc1ccc(NC(C)C)nn1
66 | 206 to 208 | CC(=O)NCc1ccc2c(c1)[C@@H](N1CCCC1=O)[C@H](O)C(C)(C)O2 (relative stereo)
67 | 121 to 122 | COCOc1cc(Cl)ccc1-c1cc(-c2cccc(C(=O)NCCCn3ccnc3)c2)c(C#N)c(NC(=O)c2ccco2)n1
68 | 164 to 167 | O=c1c(I)c(OCc2ccc(F)cc2F)ccn1Cc1cccc(F)c1
69 | 138 to 140 | O=C(c1c(F)cccc1F)N1COCN(c2ccc(S(=O)C(F)F)cc2F)C1=O (stereo unspecified)
70 | 160 to 161 | C=C1c2ccccc2C=Cn2c(OC)nnc21
71 | 189 to 190 | Cn1cnc(COc2nc3c(nnn3-c3ccccc3)c3ccccc23)n1
